pKi: −log10 of the molar value. Like-named read-outs stand apart in the source and are kept apart here.
Key:
[1] = biological target: T1, 5HT1A-serotoninergic receptor (Homo sapiens, UniProt P08908); conditions: background statement; cited from earlier work
T1 sequence (P08908 1-422): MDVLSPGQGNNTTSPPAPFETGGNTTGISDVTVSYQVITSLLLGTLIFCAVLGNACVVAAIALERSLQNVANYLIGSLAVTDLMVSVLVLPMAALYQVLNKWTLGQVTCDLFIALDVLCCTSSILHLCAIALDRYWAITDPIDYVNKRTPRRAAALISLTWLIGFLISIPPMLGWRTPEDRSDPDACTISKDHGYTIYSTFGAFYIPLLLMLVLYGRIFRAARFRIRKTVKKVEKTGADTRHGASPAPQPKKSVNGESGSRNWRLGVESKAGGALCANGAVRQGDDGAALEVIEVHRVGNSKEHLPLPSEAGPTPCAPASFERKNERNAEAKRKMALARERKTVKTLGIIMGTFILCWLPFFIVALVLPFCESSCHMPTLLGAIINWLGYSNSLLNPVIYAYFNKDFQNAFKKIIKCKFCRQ

[2] = biological target: T2, α1a-adrenoceptor (recombinant) (Homo sapiens, UniProt P35348); assay: Radioligand binding, cloned α1a-adrenoceptor ([3H]prazosin); conditions: read-out: Affinity for recombinant α1a-adrenoceptor, cloned receptors (Ki)
T2 construct: expressed in transfected cells
T2 sequence (P35348 1-466): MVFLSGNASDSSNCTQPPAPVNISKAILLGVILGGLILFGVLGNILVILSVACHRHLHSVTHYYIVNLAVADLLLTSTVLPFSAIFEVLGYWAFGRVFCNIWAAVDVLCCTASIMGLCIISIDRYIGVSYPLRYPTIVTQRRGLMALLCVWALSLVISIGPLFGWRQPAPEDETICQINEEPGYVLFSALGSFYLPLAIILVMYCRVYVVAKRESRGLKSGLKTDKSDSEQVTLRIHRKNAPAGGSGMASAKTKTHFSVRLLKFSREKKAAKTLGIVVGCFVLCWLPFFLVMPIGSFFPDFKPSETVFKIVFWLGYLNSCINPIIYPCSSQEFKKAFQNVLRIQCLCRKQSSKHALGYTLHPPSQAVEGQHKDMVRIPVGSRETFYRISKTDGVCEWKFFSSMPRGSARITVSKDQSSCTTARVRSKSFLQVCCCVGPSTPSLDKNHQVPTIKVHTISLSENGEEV
Method: (§1) Determination of affinity for cloned subtypes of α1-adrenoceptor subtypes was performed in membranes from cells transfected by electroporation with DNA expressing the genes encoding each α1-adrenoceptor subtype.
(§2) Non-specific binding was determined in the presence of 10 μM phentolamine.
(§3) Incubation was stopped by addition of ice-cold Tris buffer and rapid filtration through 0.2% polyethyleneimine-pretreated Schleicher & Schuell GF52 filters.
(§4) Data were expressed as mean Ki.

[3] = biological target: T3, α1b-adrenoceptor (recombinant) (Homo sapiens, UniProt P35368); assay: Radioligand binding, cloned α1b-adrenoceptor ([3H]prazosin); conditions: read-out: Affinity for recombinant α1b-adrenoceptor, cloned receptors (Ki)
T3 construct: expressed in transfected cells
T3 sequence (P35368 1-520): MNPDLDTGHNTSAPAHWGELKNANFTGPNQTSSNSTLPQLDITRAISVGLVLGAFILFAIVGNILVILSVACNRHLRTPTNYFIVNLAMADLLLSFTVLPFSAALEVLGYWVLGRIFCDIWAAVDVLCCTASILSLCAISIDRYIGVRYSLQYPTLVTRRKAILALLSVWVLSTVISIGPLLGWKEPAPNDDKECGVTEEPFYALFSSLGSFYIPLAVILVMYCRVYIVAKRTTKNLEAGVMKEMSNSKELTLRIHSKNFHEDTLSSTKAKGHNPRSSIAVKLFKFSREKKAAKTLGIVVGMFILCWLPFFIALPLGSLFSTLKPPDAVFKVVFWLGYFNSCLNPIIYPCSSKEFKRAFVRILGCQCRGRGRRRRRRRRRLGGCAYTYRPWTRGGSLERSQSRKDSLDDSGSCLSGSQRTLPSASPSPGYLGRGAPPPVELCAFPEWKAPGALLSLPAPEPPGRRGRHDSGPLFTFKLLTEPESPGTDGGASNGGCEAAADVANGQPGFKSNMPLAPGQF
Method: as §1, §2, §3, §4

[4] = biological target: T4, α1d-adrenoceptor (recombinant) (Homo sapiens, UniProt P25100); assay: Radioligand binding, cloned α1d-adrenoceptor ([3H]prazosin); conditions: read-out: Affinity for recombinant α1d-adrenoceptor, cloned receptors (Ki)
T4 sequence (P25100 1-572): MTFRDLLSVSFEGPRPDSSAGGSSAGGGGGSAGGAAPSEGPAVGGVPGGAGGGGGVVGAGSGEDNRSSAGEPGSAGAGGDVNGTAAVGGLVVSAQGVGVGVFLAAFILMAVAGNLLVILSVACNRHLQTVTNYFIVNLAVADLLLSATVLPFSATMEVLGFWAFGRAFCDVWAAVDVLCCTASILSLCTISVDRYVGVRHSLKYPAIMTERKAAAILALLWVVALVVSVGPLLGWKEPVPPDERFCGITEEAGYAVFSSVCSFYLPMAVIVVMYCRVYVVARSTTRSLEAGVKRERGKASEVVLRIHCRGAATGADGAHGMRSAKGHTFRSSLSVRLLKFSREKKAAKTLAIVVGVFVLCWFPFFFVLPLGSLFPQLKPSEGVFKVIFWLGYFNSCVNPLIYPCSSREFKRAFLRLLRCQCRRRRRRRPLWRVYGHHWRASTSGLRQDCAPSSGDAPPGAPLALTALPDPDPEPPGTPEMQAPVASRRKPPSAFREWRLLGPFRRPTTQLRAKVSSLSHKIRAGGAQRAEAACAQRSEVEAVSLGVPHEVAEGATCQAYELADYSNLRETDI
Method: as §1, §2, §3, §4

[5] = tested on: prostatic urethral pressure increase induced by noradrenaline; assay: Inhibition of urethral contractions induced by noradrenaline in anaesthetised dogs after i.v. administration; assay type: in vivo, dog; conditions: for UC ID50: active dose inhibiting by 50% the urethral contractions induced by noradrenaline: i.v. administration; for DBP/UC ratio between the active doses: i.v., DBP ED25 / UC ID50
Method: (§5) The experiments were performed according to the method of Imagawa J. et al., J. Pharmacol. Methods 22: 103-111, 1989, with substantial modifications, as follows: adult male beagle dogs, weighing 8-10 kg, were anaesthetised with pentobarbital sodium (30 mg/kg i.v. and 2 mg/kg/h i.v.), intubated and spontaneously ventilated with room air. In order to monitor systemic blood pressure (BP), a polyethylene (PE) catheter was introduced into the aortic arch through the left femoral artery. A collateral of the left femoral vein was cannulated for infusion of anaesthetic, and the right femoral vein was cannulated for administration of compounds. For intra-arterial (i.a.) injection of noradrenaline (NA), a PE catheter was introduced into the lower portion of the abdominal aorta via the right external iliac artery. Through such procedure, NA was selectively distributed to the lower urinary tract. A paramedian vertical suprapubic incision extending from the base of the pelvis to the mid-abdominal region was made and the bladder and prostate were exposed. The bladder was manually emptied with a syringe. Prostatic urethral pressure was monitored with a Mikro-tip catheter (5F) introduced into the bladder via the external urethral meatus, and withdrawn until the pressure transducer was positioned in the prostatic region of the urethra. A ligature was secured between the neck of the bladder and urethra to isolate the response of the latter and to avoid any interaction with the bladder. Another ligature was put around the Mikro-tip catheter at the external meatus, to secure the catheter itself. After a stabilising period following the surgical procedure (30 minutes), in which arterial and prostatic urethral pressure were continuously monitored as basal values, i.a. administration of NA was made at intervals of 20 minutes. The doses of NA chosen were such to produce an increase of at least 100% in urethral pressure. The test compounds were administered i.v. in a cumulative manner with intervals of 15-20 minutes between administrations. I.a. injections of NA were repeated 5 minutes after every dosing of test compound with intervals of about 10 minutes between stimulations. In order to compare the effects of the administered compound, dose/response curves (log dose transformation) were constructed by computing, at the peak effect, the percent decrease in diastolic blood pressure and the percent inhibition of the increase in urethral pressure induced by NA.

diastolic blood pressure [6] = assay: Lowering of diastolic blood pressure in anaesthetised dogs after i.v. administration; assay type: in vivo, dog
Method: as §5

[7] = biological target: T1, 5HT1A-serotoninergic receptor; assay: Radioligand binding, cloned 5-HT1A-serotoninergic receptor in HeLa membranes ([3H]8-OH-DPAT); parameters: expressed in transfected cells; host or cells: HeLa; conditions: cloned human 5-HT1A receptor in HeLa membranes, mean Ki, read-out: Affinity for 5-HT1A receptor, cloned receptors (Ki)
Method: HeLa cells were grown as monolayers in Dulbecco's Modified Eagle medium (DMEM) supplemented with 10% foetal calf serum and gentamicin (100 μg/mL), 5% CO2, at 37° C. The cells were detached from the growth flask at 95% confluence by a cell scraper and were lysed in ice-cold Tris-5-mM and EDTA-5-mM buffer (pH 7.4). The homogenates were centrifuged at 40000×g×20 minutes and the membranes were resuspended in a small volume of ice-cold buffer containing Tris 5 mM and EDTA 5 mM (pH 7.4), and immediately frozen and stored at −70° C. until use.
Non-specific binding was determined in the presence of 10 μM 5-HT. The incubation was stopped by addition of ice-cold Tris buffer and rapid filtration through 0.2% polyethyleneimine-pretreated Schleicher & Schuell filters.
as §4

α1-adrenergic receptor = conditions: background statement; cited from earlier work
[8] = tested on: prostatic urethral pressure increase induced by noradrenaline; conditions: anaesthetised dogs, i.v.; data from Leonardi et al. 1997; cited from earlier work
diastolic blood pressure [9] = conditions: anaesthetised dogs, i.v.; data from Leonardi et al. 1997; cited from earlier work

CCOc1ccccc1OCCN[C@H](C)Cc1ccc(OC)c(S(N)(=O)=O)c1 [tamsulosin]
Affinity for the 5HT1A-serotoninergic receptor [1]: comparable affinity

Cc1c(-c2ccccc2)oc2c(C(=O)NCCCN3CCN(c4ccccc4OCC(F)(F)F)CC3)cccc2c1=O [Example 15, 8-<3-{4-[2-(2,2,2-Trifluoroethoxy)phenyl]-1-piperazinyl}propylcarbamoyl>-3-methyl-4-oxo-2-phenyl-4H-1-benzopyran]
pKi [2]: 10.15
pKi [3]: 8.22
pKi [4]: 8.47
UC ID50: active dose inhibiting by 50% the urethral contractions induced by noradrenaline [5]: 0.0049 mg/kg
DBP ED25: active dose lowering diastolic blood pressure by 25% (diastolic blood pressure [6]): 3.001 mg/kg
pKi [7]: 9.15

Cc1c(-c2ccccc2)oc2c(C(=O)OCCN3CCCCC3)cccc2c1=O [Flavoxate, 3-methyl-4-oxo-2-phenyl-8-(2,N-piperidinylethoxycarbonyl)-4H-1-benzopyran]
Affinity for the α1-adrenergic receptor (α1-adrenergic receptor): practically devoid of affinity
Affinity for the 5HT1A-serotoninergic receptor [1]: practically devoid of affinity

Cc1c(-c2ccccc2)oc2c(C(=O)NCCCN3CCN(c4cc(Cl)ccc4OCC(F)(F)F)CC3)cccc2c1=O [Example 22, 8-<3-{4-[5-Chloro-2-(2,2,2-trifluoroethoxy)phenyl]-1-piperazinyl}-propylcarbamoyl>-3-methyl-4-oxo-2-phenyl-4H-1-benzopyran]
pKi [2]: 9.60
pKi [3]: 8.72
pKi [4]: 8.51
UC ID50: active dose inhibiting by 50% the urethral contractions induced by noradrenaline [5]: 0.0195 mg/kg
DBP/UC ratio between the active doses [5]: 64.92
DBP ED25: active dose lowering diastolic blood pressure by 25% (diastolic blood pressure [6]): 1.266 mg/kg

COc1ccccc1N1CCN(CCCNC(=O)c2cccc3c(=O)c(C)c(-c4ccccc4)oc23)CC1 [Compound A]
UC ID50: active dose inhibiting by 50% the urethral contractions induced by noradrenaline [8]: 0.0024 mg/kg
DBP ED25: active dose lowering diastolic blood pressure by 25% (diastolic blood pressure [9]): 0.243 mg/kg

COc1ccc(C#N)cc1N1CCN(CCCNC(=O)c2cccc3c(=O)c(C)c(-c4ccccc4)oc23)CC1 [Example 18, 8-{3-[4-(5-Cyano-2-methoxyphenyl)-1-piperazinyl]propylcarbamoyl}-3-methyl-4-oxo-2-phenyl-4H-1-benzopyran]
pKi [2]: 8.38
pKi [3]: 7.00
pKi [4]: 7.34
UC ID50: active dose inhibiting by 50% the urethral contractions induced by noradrenaline [5]: 0.0341 mg/kg
DBP/UC ratio between the active doses [5]: 38.05
DBP ED25: active dose lowering diastolic blood pressure by 25% (diastolic blood pressure [6]): 1.2976 mg/kg
pKi [7]: 6.17

Reference: US6403594B1, “Benzopyran derivatives” (Recordati, S.A. Chemical and Pharmaceutical Company, priority 1999, dated 2002)
